This note sets out measurements from ChEMBL document CHEMBL4052767, “Discovery of a potent angiotensin converting enzyme inhibitor via virtual screening” (Bioorg Med Chem Lett, 2017).

The target in this test is Angiotensin-converting enzyme (Homo sapiens) (UniProt P12821). Description: Inhibition of recombinant human ACE at 100 uM using Mca-R-P-PG-F-S-A-F-K(Dnp)-OH as substrate measured every 2 mins for 8 mins by fluorescence assay.
Angiotensin-converting enzyme (Homo sapiens), sequence (P12821 whole entry): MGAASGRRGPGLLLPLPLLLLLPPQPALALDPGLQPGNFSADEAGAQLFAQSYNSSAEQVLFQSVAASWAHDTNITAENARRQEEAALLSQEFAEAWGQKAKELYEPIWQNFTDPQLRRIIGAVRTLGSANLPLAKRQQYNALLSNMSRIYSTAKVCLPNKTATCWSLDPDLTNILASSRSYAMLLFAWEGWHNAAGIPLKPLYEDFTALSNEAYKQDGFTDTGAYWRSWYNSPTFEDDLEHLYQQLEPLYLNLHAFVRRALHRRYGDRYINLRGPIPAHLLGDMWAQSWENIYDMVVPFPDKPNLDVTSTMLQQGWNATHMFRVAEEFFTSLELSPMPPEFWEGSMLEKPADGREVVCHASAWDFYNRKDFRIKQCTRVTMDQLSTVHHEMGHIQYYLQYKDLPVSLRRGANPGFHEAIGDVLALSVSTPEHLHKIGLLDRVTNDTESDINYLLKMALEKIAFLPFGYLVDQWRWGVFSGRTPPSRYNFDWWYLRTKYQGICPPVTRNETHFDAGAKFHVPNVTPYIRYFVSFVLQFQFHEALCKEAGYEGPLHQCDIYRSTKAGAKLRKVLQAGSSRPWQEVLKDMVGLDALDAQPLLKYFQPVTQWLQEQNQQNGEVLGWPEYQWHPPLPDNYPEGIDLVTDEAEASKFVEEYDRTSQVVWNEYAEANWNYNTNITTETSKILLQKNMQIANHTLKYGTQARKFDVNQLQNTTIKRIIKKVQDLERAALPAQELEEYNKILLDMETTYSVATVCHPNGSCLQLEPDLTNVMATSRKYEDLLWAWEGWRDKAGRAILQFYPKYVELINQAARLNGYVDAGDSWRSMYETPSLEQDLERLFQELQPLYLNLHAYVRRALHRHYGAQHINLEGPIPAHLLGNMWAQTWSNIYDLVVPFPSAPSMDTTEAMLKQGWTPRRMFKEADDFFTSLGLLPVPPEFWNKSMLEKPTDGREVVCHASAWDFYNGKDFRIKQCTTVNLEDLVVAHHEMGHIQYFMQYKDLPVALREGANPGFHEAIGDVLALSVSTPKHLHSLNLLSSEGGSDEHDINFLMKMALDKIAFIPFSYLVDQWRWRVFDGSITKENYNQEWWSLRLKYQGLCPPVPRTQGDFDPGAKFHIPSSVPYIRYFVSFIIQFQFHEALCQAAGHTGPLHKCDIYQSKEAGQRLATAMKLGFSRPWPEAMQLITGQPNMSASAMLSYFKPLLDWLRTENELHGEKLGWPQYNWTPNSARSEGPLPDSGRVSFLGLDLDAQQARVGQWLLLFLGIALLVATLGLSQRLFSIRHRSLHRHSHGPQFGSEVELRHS
`COc1cc(C=O)ccc1O`: the inhibition was 41.5%.
To `C[C@@H]1CC[C@H]2[C@@H](C)C(=O)O[C@@H]3O[C@@]4(C)CC[C@@H]1[C@]32OO4` belongs 17.1%.
To `C[C@]1(O)C[C@@H](O)[C@]2(O)C=CO[C@@H](O[C@@H]3O[C@H](CO)[C@@H](O)[C@H](O)[C@H]3O)[C@@H]21` belongs 14.8%; to `CC[C@H]1CN2CC[C@]3(C(=O)Nc4ccccc43)[C@@H]2C[C@@H]1/C(=C\OC)C(=O)OC`, 10%; to `OC[C@H]1O[C@@H](Oc2cc(O)cc(/C=C/c3ccc(O)cc3)c2)[C@H](O)[C@@H](O)[C@@H]1O`, 8.9%.
To `COc1ccc(/C=C/c2cc(O)cc(O[C@@H]3O[C@H](CO)[C@@H](O)[C@H](O)[C@H]3O)c2)cc1O` belongs 18.2%.
For the compound `C=CC(C)(C)c1cc(/C=C/C(=O)c2ccc(O)cc2)c(OC)cc1O`, the inhibition amounted to 111%.
Consider `C[C@@H]1O[C@@H](Oc2cc(O)c3c(=O)c(O)c(-c4ccc(O)cc4)oc3c2O)[C@H](O)[C@H](O)[C@H]1O`, for which the inhibition is 17.2%.
Consider `O=C(O[C@@H]1Cc2c(O)cc(O)cc2O[C@@H]1c1cc(O)c(O)c(O)c1)c1cc(O)c(O)c(O)c1`, for which the inhibition was determined as 82%.
Turning to `COc1cc(O)ccc1/C=C/C(=O)c1ccc(O)cc1`, the inhibition was 72.5%.

As a reminder, the inhibition is the relative decrease from the control value, in per cent.
